Values of other authors in patent US7214387B2, “Sustained release formulations of metformin” (Penwest Pharmaceuticals Company, priority 2002, dated 2007).

System: serum lipids

**Q.** For `CN(C)C(=N)NC(=N)N` [metformin, N,N-dimethylimidodicarbonimidicdiamide], which “effects on other lipid levels” value (clinical studies) is on record?
**A.** no adverse effects

**Q.** And the “mean fasting serum triglycerides, total cholesterol, and LDL cholesterol levels” value (particularly when baseline lipid levels were abnormally elevated)?
**A.** lowered
